The record followed here is patent US20260042755A1, “GPR6 INVERSE AGONISTS” (MapLight Therapeutics, Inc., priority 2022, published 2026).

Molecules are shown by their SMILES.

Test [1] addresses T1, GPR6 (Homo sapiens, UniProt P46095).
T1 construct: expressed in transfected cells; host or cells: CHO cells
The test can be described thus: GPR6 antagonist functional cAMP assay (LANCE Ultra cAMP TR-FRET, CHO cells stably expressing GPR6). The settings on record: CHO cells stably expressing GPR6, cAMP assay. The class given is cell-based. In outline:
(§1)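 Compounds, at 0.1% final DMSO, acted on the cells for 45 minutes at 37 °C in the presence of the phosphodiesterase inhibitor Ro 20-1724 (150 μM). After lysis and detection, plates were shaken 1 h at room temperature and emission at 665 nm was recorded. Normalized data gave IC50 values.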

Test [2] concerns the target T2, GPR3 (Homo sapiens, UniProt P46089).
T2 construct: expressed in transfected cells; host or cells: CHO cells
The test can be described thus: GPR3 antagonist functional cAMP assay (LANCE Ultra cAMP TR-FRET, CHO cells stably expressing GPR3). The class given is cell-based. The settings on record: CHO cells stably expressing GPR3, cAMP assay. Summed up:
as §1
For orientation: Cyclic AMP is a second messenger, typically raised through Gs and lowered through Gi signalling.

In general, IC50 refers to the point on the concentration scale where inhibition reaches its midpoint. Lower therefore signals higher potency.

T1 sequence (P46095 whole entry): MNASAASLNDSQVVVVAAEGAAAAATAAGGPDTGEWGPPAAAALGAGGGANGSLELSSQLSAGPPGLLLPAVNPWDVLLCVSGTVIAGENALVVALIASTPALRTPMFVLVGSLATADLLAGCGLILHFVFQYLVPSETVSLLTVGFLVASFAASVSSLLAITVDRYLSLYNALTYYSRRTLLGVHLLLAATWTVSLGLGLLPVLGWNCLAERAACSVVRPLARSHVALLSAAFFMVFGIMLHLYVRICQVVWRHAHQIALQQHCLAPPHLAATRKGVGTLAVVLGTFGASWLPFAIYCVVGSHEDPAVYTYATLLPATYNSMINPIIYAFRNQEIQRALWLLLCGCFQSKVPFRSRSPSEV
T2 sequence (P46089 whole entry, species assumed): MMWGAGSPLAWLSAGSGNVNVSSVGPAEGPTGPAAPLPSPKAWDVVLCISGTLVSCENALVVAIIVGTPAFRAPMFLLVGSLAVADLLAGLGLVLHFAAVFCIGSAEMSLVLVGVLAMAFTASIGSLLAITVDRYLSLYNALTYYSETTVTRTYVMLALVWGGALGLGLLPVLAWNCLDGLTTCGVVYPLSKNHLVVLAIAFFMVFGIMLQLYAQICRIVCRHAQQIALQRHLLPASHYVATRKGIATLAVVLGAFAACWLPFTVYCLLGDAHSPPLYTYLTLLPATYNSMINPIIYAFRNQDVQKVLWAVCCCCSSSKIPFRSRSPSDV

With `CCn1cc(-c2nc3c(nc2N2CCC(Oc4ccc(F)cc4F)CC2)CCN(C(=O)C2COCCN2C)C3)cn1` (stereo not shown) [Compound 492, 3-{2-[4-(2,4-difluorophenoxy)piperidin-1-yl]-3-(1-ethyl-1H-pyrazol-4-yl)-5H,6H,7H,8H-pyrido[3,4-b]pyrazine-6-carbonyl}-4-methylmorpholine], the values for the IC50 in test [1] and in test [2] were 100 to 1000 nM and 1 to 30 µM, respectively.

Regarding `CCc1cncc(-c2nc3c(nc2N2CCC(Oc4ccc(F)cc4F)CC2)CCN(C(C)=O)C3)n1` [Compound 493, 1-{2-[4-(2,4-difluorophenoxy)piperidin-1-yl]-3-(6-ethylpyrazin-2-yl)-5H,6H,7H,8H-pyrido[3,4-b]pyrazin-6-yl}ethan-1-one], the IC50 in test [1] was in the range of 1000 to 30000 nM; in test [2] it was 1 to 30 µM.

Regarding `CC(=O)N1CCc2nc(N3CCC(Oc4ccc(F)cc4F)CC3)c(/C=C3/CCOC3)nc2C1` [Compound 494, 1-{2-[4-(2,4-difluorophenoxy)piperidin-1-yl]-3-{[(3Z)-oxolan-3-ylidene]methyl}-5H,6H,7H,8H-pyrido[3,4-b]pyrazin-6-yl}ethan-1-one], the IC50 in test [1] lay in the range of 100 to 1000 nM; in test [2], 1 to 30 µM.

`CC(=O)OC1CCN(c2nc3c(nc2-c2cnn(C)c2)CN(Cc2ccccc2)CC3)C1` (stereo not shown) [Compound 495, 1-[6-benzyl-3-(1-methyl-4-pyrazolyl)-5,6,7,8-tetrahydro-1,4,6-triaza-2-naphthyl]-3-pyrrolidinyl acetate]: the IC50 was 1000 to 30000 nM in test [1] and at least 30 µM in test [2].

Regarding `CC(=O)N1CCc2nc(N3CCC(Oc4ccc(F)cc4F)CC3)c(C3CCN(CC(F)(F)F)CC3)nc2C1` [Compound 496, 1-{2-[4-(2,4-difluorophenoxy)-1-piperidyl]-3-[1-(2,2,2-trifluoroethyl)-4-piperidyl]-5,6,7,8-tetrahydro-1,4,6-triaza-6-naphthyl}-1-ethanone], the figures for the IC50 in test [1] and in test [2] were 1000 to 30000 nM and 1 to 30 µM, respectively.

For `CC(=O)N1CCc2nc(N3CCC(Oc4ccc(F)cc4C#N)CC3)c(-c3cnn(C)c3)nc2C1` [Compound 497, 2-{1-[6-acetyl-3-(1-methyl-4-pyrazolyl)-5,6,7,8-tetrahydro-1,4,6-triaza-2-naphthyl]-4-piperidyloxy}-5-fluorobenzonitrile], the IC50 was in the range of 100 to 1000 nM in test [1] and 1 to 30 µM in test [2].

`COc1ccc(OC2CCN(c3nc4c(nc3-c3cnn(C)c3)CN(C(C)=O)CC4)CC2)cn1` [Compound 498, 1-{2-[4-(6-methoxy-3-pyridyloxy)-1-piperidyl]-3-(1-methyl-4-pyrazolyl)-5,6,7,8-tetrahydro-1,4,6-triaza-6-naphthyl}-1-ethanone]: the half-maximal inhibitory concentration (IC50) was 1000 to 30000 nM in test [1] and 1 to 30 µM in test [2].

`CC(=O)N1CCc2nc(N3CCC(Oc4ccccc4C#N)CC3)c(-c3cnn(C)c3)nc2C1` [Compound 499, o-{1-[6-acetyl-3-(1-methyl-4-pyrazolyl)-5,6,7,8-tetrahydro-1,4,6-triaza-2-naphthyl]-4-piperidyloxy} benzonitrile]: the IC50 in test [1] is 100 to 1000 nM; in test [2] it was at least 30 µM.

`CC(=O)N1CCc2nc(N3CCC(Oc4ccc(C#N)cc4F)CC3)c(-c3cnn(C)c3)nc2C1` [Compound 500, 4-{1-[6-acetyl-3-(1-methyl-4-pyrazolyl)-5,6,7,8-tetrahydro-1,4,6-triaza-2-naphthyl]-4-piperidyloxy}-3-fluorobenzonitrile]: the IC50 is 1000 to 30000 nM in test [1] and 1 to 30 µM in test [2].

`CC(=O)N1CCc2nc(N3CCC(Oc4ccc(C(F)(F)F)cc4F)CC3)c(-c3cnn(C)c3)nc2C1` [Compound 501, 1-(2-{4-[2-fluoro-4-(trifluoromethyl)phenoxy]-1-piperidyl}-3-(1-methyl-4-pyrazolyl)-5,6,7,8-tetrahydro-1,4,6-triaza-6-naphthyl)-1-ethanone]: the IC50 lay within 100 to 1000 nM in test [1] and 0.1 to 1 µM in test [2].

Turning to `COc1ccc(OC2CCN(c3nc4c(nc3-c3cnn(C)c3)CN(C(C)=O)CC4)CC2)cc1F` [Compound 502, 1-{2-[4-(3-fluoro-4-methoxyphenoxy)-1-piperidyl]-3-(1-methyl-4-pyrazolyl)-5,6,7,8-tetrahydro-1,4,6-triaza-6-naphthyl}-1-ethanone], the figures for the IC50 in test [1] and in test [2] were 100 to 1000 nM and 1 to 30 µM, respectively.

As for `COc1cc(F)c(OC2CCN(c3nc4c(nc3-c3cnn(C)c3)CN(C(C)=O)CC4)CC2)cc1Cl` [Compound 503, 1-{2-[4-(5-chloro-2-fluoro-4-methoxyphenoxy)-1-piperidyl]-3-(1-methyl-4-pyrazolyl)-5,6,7,8-tetrahydro-1,4,6-triaza-6-naphthyl}-1-ethanone], the IC50 in test [1] was in the range of 1000 to 30000 nM; in test [2], 1 to 30 µM.

On to `CCOc1ccc(OC2CCN(c3nc4c(nc3-c3cnn(C)c3)CN(C(C)=O)CC4)CC2)c(F)c1` [Compound 504, 1-{2-[4-(4-ethoxy-2-fluorophenoxy)-1-piperidyl]-3-(1-methyl-4-pyrazolyl)-5,6,7,8-tetrahydro-1,4,6-triaza-6-naphthyl}-1-ethanone], for which the values for the half-maximal inhibitory concentration (IC50) in test [1] and in test [2] were 100 to 1000 nM and 1 to 30 µM, respectively.

Consider `CC(=O)N1CCc2nc(N3CCN(Cc4cc(F)ccc4F)CC3)c(-c3cnn(C)c3)nc2C1` [Compound 505, 1-(2-{4-[(2,5-difluorophenyl)methyl]-1-piperazinyl}-3-(1-methyl-4-pyrazolyl)-5,6,7,8-tetrahydro-1,4,6-triaza-6-naphthyl)-1-ethanone], for which the IC50 lay within 100 to 1000 nM in test [1] and 1 to 30 µM in test [2].

With `CC(=O)N1CCc2nc(N3CCN(Cc4cc(F)ccc4Cl)CC3)c(-c3cnn(C)c3)nc2C1` [Compound 506, 1-(2-{4-[(2-chloro-5-fluorophenyl)methyl]-1-piperazinyl}-3-(1-methyl-4-pyrazolyl)-5,6,7,8-tetrahydro-1,4,6-triaza-6-naphthyl)-1-ethanone], the results for the IC50 in test [1] and in test [2] were 100 to 1000 nM and 1 to 30 µM, respectively.

Regarding `CC(=O)N1CCc2nc(N3CCN(Cc4ccccc4Cl)CC3)c(-c3cnn(C)c3)nc2C1` [Compound 507, 1-(2-{4-[(o-chlorophenyl)methyl]-1-piperazinyl}-3-(1-methyl-4-pyrazolyl)-5,6,7,8-tetrahydro-1,4,6-triaza-6-naphthyl)-1-ethanone], the IC50 in test [1] fell in the range of 100 to 1000 nM; in test [2], 1 to 30 µM.

`CC(=O)N1CCc2nc(N3CCN(Cc4ccccc4Br)CC3)c(-c3cnn(C)c3)nc2C1` [Compound 508, 1-(2-{4-[(o-bromophenyl)methyl]-1-piperazinyl}-3-(1-methyl-4-pyrazolyl)-5,6,7,8-tetrahydro-1,4,6-triaza-6-naphthyl)-1-ethanone]: the IC50 in test [1] fell in the range of 100 to 1000 nM; in test [2], 1 to 30 µM.

In the case of `COc1ccccc1CN1CCN(c2nc3c(nc2-c2cnn(C)c2)CN(C(C)=O)CC3)CC1` [Compound 509, 1-(2-{4-[(o-methoxyphenyl)methyl]-1-piperazinyl}-3-(1-methyl-4-pyrazolyl)-5,6,7,8-tetrahydro-1,4,6-triaza-6-naphthyl)-1-ethanone], the results for the IC50 in test [1] and in test [2] were at least 30000 nM and 1 to 30 µM, respectively.

On to `CC(=O)N1CCc2nc(N3CCN(Cc4ccccc4C)CC3)c(-c3cnn(C)c3)nc2C1` [Compound 510, 1-[3-(1-methyl-4-pyrazolyl)-2-{4-[(o-tolyl)methyl]-1-piperazinyl}-5,6,7,8-tetrahydro-1,4,6-triaza-6-naphthyl]-1-ethanone], for which the IC50 was in the range of 1000 to 30000 nM in test [1] and 1 to 30 µM in test [2].

With `CC(=O)N1CCc2nc(N3CCN(Cc4ccccn4)CC3)c(-c3cnn(C)c3)nc2C1` [Compound 511, 1-[3-(1-methyl-4-pyrazolyl)-2-{4-[(2-pyridyl)methyl]-1-piperazinyl}-5,6,7,8-tetrahydro-1,4,6-triaza-6-naphthyl]-1-ethanone], the IC50 in test [1] was at least 30000 nM; in test [2] it was at least 30 µM.

Take `CC(=O)N1CCc2nc(N3CCN(Cc4cccc(C#N)c4)CC3)c(-c3cnn(C)c3)nc2C1` [Compound 512, m-({4-[6-acetyl-3-(1-methyl-4-pyrazolyl)-5,6,7,8-tetrahydro-1,4,6-triaza-2-naphthyl]-1-piperazinyl}methyl)benzonitrile]: the IC50 in test [1] was 1000 to 30000 nM; in test [2], 1 to 30 µM.

In the case of `CC(=O)N1CCc2nc(N3CCC(Oc4ccc(Br)cn4)CC3)c(-c3cnn(C)c3)nc2C1` [Compound 513, 1-{2-[4-(5-bromo-2-pyridyloxy)-1-piperidyl]-3-(1-methyl-4-pyrazolyl)-5,6,7,8-tetrahydro-1,4,6-triaza-6-naphthyl}-1-ethanone], the results for the IC50 in test [1] and in test [2] were 1000 to 30000 nM and 1 to 30 µM, respectively.

Take `CC(=O)N1CCc2nc(N3CCN(Cc4ccsc4)CC3)c(-c3cnn(C)c3)nc2C1` [Compound 514, 1-[3-(1-methyl-4-pyrazolyl)-2-{4-[(3-thienyl)methyl]-1-piperazinyl}-5,6,7,8-tetrahydro-1,4,6-triaza-6-naphthyl]-1-ethanone]: the IC50 in test [1] fell in the range of 1000 to 30000 nM; in test [2], 1 to 30 µM.

For `CC(=O)N1CCc2nc(N3CCN(Cc4cccs4)CC3)c(-c3cnn(C)c3)nc2C1` [Compound 515, 1-[3-(1-methyl-4-pyrazolyl)-2-(4-thenyl-1-piperazinyl)-5,6,7,8-tetrahydro-1,4,6-triaza-6-naphthyl]-1-ethanone], the IC50 in test [1] fell in the range of 1000 to 30000 nM; in test [2] it was 1 to 30 µM.

For `CC(=O)N1CCc2nc(N3CCN(Cc4cscn4)CC3)c(-c3cnn(C)c3)nc2C1` [Compound 516, 1-[3-(1-methyl-4-pyrazolyl)-2-{4-[(1,3-thiazol-4-yl)methyl]-1-piperazinyl}-5,6,7,8-tetrahydro-1,4,6-triaza-6-naphthyl]-1-ethanone], the IC50 was 1000 to 30000 nM in test [1] and at least 30 µM in test [2].

Turning to `CC(=O)N1CCc2nc(N3CCN(Cc4cccnc4)CC3)c(-c3cnn(C)c3)nc2C1` [Compound 517, 1-[3-(1-methyl-4-pyrazolyl)-2-{4-[(3-pyridyl)methyl]-1-piperazinyl}-5,6,7,8-tetrahydro-1,4,6-triaza-6-naphthyl]-1-ethanone], the IC50 in test [1] was at least 30000 nM; in test [2], at least 30 µM.
